The assay concerns the target T1, human TRPC5 (Homo sapiens, UniProt Q9UL62).
T1 construct: expressed in transfected cells
T1 sequence (Q9UL62 1-973): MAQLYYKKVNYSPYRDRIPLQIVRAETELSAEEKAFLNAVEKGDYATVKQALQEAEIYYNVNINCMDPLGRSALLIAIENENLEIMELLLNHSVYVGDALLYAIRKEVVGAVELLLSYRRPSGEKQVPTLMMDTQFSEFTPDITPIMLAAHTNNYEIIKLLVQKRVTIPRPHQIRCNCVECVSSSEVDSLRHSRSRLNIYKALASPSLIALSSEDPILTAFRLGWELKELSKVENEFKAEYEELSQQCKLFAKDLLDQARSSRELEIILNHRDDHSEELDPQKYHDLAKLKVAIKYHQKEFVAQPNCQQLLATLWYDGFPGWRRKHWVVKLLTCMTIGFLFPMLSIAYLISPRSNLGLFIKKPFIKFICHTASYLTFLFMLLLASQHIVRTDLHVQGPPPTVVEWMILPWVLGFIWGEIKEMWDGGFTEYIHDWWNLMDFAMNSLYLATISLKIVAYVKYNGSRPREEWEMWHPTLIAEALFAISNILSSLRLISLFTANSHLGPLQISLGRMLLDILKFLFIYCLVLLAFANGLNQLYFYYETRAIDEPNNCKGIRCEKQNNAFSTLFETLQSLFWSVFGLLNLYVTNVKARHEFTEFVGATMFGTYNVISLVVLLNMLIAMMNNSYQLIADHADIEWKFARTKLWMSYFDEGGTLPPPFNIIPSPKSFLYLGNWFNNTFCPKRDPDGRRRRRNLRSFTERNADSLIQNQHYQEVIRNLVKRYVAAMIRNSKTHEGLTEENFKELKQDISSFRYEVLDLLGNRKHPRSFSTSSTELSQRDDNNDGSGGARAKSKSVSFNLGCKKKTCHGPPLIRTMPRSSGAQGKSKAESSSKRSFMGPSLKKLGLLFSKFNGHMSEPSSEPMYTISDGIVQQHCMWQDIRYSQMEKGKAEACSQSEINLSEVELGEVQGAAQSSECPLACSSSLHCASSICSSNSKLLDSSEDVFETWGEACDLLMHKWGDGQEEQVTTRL
Nature of the assay: Automated patch clamp assay (QPatch), antagonist mode. Conditions: HEK-TREx hTRPC5 cells; channel activated with Rosiglitazone 30 μM; normalised to ML-204 block; read-out: Qpatch Potency Range. It is filed as cell-based. As to the method: ICLN-1633 cells (HEK-TREx hTRPC5) expressing TRPC5 were generated as follows. Commercially available HekTrex-293 cells were seeded at 0.7×10^6 cells/well in a 1×6-well plate 24 hrs prior to transfection using 2 mL cell growth media containing no antibiotics (1× DMEM/high glucose (Hyclone #SH30022.02); 10% fetal bovine serum (Sigma) 2 mM sodium pyruvate, 10 mM HEPES). The human TRPC5 coding sequence (NM_012471 with a silent T478C mutation) was cloned into pcDNA5/TO (Invitrogen; Cat No. V103320) using hygromycin as the resistance gene and the plasmid (SEQ ID NO:1) propagated using T-Rex-293 cells (Invitrogen; Cat No. R71007) following manufacturer's directions. On day 2, 2 μg of plasmid DNA plus 6 μl of Xtreme-GENE HP reagent in Optimem (200 μl total volume) was prepared and incubated for 15 min at room temperature. This plasmid solution was then gently overlayed dropwise onto each well and the plate was gently swirled to mix complex with the media for approximately 30 seconds. Transfected cells were incubated at 37° C. in a 10% CO2 incubator for 24 hrs. The transfected cells were harvested and transferred into 2×150 mm dishes containing cell growth media with no antibiotics at 37° C.
The next day selection was initiated to generate a stable pool by adding cell growth media containing 150 μg/mL Hygromycin and 5 μg/mL Blasticidin and cells were allowed to grow. Media with the selection agent was changed every 1-2 days as needed to remove dead cells. After 7 days, the hygromycin concentration was reduced to 75 μg/mL and cells growth was allowed to continue.
Single clones were selected as follows. The stable pool was diluted to 10 cells/mL and seeded (100 μl/well) into 24×96 well plates (˜1 cell/well) and allowed to grow for 7 days in cell growth media. Fresh media (100 μl) was added and the cells allowed to grow for another 1-2 weeks and then stored frozen or used immediately.
The automated electrophysiological assay was carried out at room temperature. On the day of the experiment, TRPC5 cells were cultured according to our Standard Operating Procedure. Briefly, cells were harvested using TrypLE™ Express, re-suspended in serum free medium, added to the automated platform and used within 0.5-3 hours. Internal and external physiological solutions were freshly prepared prior to the assay. The external solution contained: 145 mM NaCl, 4 mM KCl, 2 mM CaCl2, 1 mM MgCl2, 10 mM HEPES, 10 mM glucose, pH 7.4 with NaOH and 310 mOsm/L. The internal solution contained 120 mM L-aspartic acid, 120 mM CsOH·H2O, 20 mM CsCl, 2 mM MgCl2, 8.8 mM CaCl2, 10 mM EGTA, 10 mM HEPES and 2 mM Na2ATP; pH 7.2 with CsOH and 330 mOsm/L. The free internal Ca^2+ concentration was buffered to 1 μM, according to the WCabuf software. The automated electrophysiological platform QPatch 16 from Sophion (Denmark) was used to carry out the compounds profiling. The series resistance and quality of seals were continuously monitored during the experiments. Data were analyzed using Sophion QPatch assay software 5.6 (Odense). Data were normalized using the maximum activation obtained during the pre-compound agonist application as the top value (1.0) and maximum inhibition induced by ML-204 as the bottom value (0.0). IC50 values were calculated using a least squares regression algorithm (Hill equation).
To monitor the ion currents, a voltage ramp from −100 mV to +100 mV, over 300 ms, was applied every 10 seconds, from a holding potential of −60 mV. Antagonist-mode: After recording for a minimum of 60 seconds control period, the EC60 concentration of the TRPC5 agonist, Rosiglitazone (30 μM), was applied to activate the channel. After reaching steady-state, co-application of increasing concentrations of test compound were applied followed by two applications of Rosiglitazone EC60 and a saturating concentration of the specific blocker ML-204 (100 μM).
On the technique in general: Patch clamp records ionic current or voltage across a cell membrane.

The values that follow come from patent US12466834B2, “Imidazodiazepinediones and methods of use thereof” (GFB (ABC), LLC, priority 2018, dated 2025).

As to `C[C@@H]1C(=O)N(C)c2nc(Oc3cccc(F)c3)n(Cc3ccc(Cl)cc3)c2C(=O)N1CCCO` (single isomer, unassigned) [Compound 19], the IC50 was more than 30 µM.
Next, `O=C1c2c(nc(Oc3cccc(OC(F)(F)F)c3)n2Cc2ccc(Cl)cc2)N2CCC[C@H]2C(=O)N1CCCO` (single isomer, unassigned) [Compound 22]: more than 30 µM; `O=C1c2c(nc(Oc3cccc(OC(F)(F)F)c3)n2Cc2ccc(Cl)cc2)N2CCC[C@@H]2C(=O)N1CCCO` (single isomer, unassigned) [Compound 23]: 1 to 30 µM.
For the molecule `CN1CC(=O)N(CCCO)C(=O)c2c1nc(Oc1cccc(OC(F)(F)F)c1)n2Cc1ccc(Cl)cc1` [Compound 21, 1-[(4-chlorophenyl)methyl]-7-(3-hydroxypropyl)-4-methyl-2-[3-(trifluoromethoxy)phenoxy]-1H,4H,5H,6H,7H,8H-imidazo[4,5-e][1,4]diazepine-6,8-dione], the IC50 lay within 1 to 30 µM.
